Earlier results on 2 compounds are cited in US20250319028A1, “PHARMACEUTICAL FORMULATION COMPRISING TACROLIMUS, METHOD FOR THE PREPARATION THEREOF AND USE” (PHARMATHEN S.A., priority 2021, published 2025).

For data set [1] the following is noted: reported, patients.

For `C=CC[C@@H]1/C=C(\C)C[C@H](C)C[C@H](OC)[C@H]2O[C@@](O)(C(=O)C(=O)N3CCCC[C@H]3C(=O)O[C@H](/C(C)=C/[C@@H]3CC[C@@H](O)[C@H](OC)C3)[C@H](C)[C@@H](O)CC1=O)[C@H](C)C[C@@H]2OC` [Tacrolimus monohydrate], under “ethanol”, the Solubility in ethanol result was “freely soluble”. Besides, where the note is “heptane”, the Solubility in heptane result is reported as “practically insoluble”. Also, for the setting “water”, the Solubility in water entry was “practically insoluble”.
For `C=CC[C@@H]1/C=C(\C)C[C@H](C)C[C@H](OC)[C@H]2O[C@@](O)(C(=O)C(=O)N3CCCC[C@H]3C(=O)O[C@H](/C(C)=C/[C@@H]3CC[C@@H](O)[C@H](OC)C3)[C@H](C)[C@@H](O)CC1=O)[C@H](C)C[C@@H]2OC` [Tacrolimus], the “Overall incidence of drug-induced nephrotoxicity” value in data set [1] is listed as at most 44%.
